Experiments:
Cynomolgus monkey [1] = assay: Clearance in iv dosed cynomolgus monkey relative to hepatic blood flow; format: ADME, organism-based, Macaca fascicularis; conditions: in vivo
Cynomolgus monkey [2] = assay: In vivo inhibition of ACTH-stimulated aldosterone level in cynomolgus monkey assessed as change in plasma aldosterone AUC (0 to 3 hrs) at 1 mg/kg, iv administered 5 mins before ACTH challenge relative to control; format: functional, Macaca fascicularis; set-up: scale not given: the % may be the effect or the level left
Cytochrome P450 3A4 = Cytochrome P450 3A4 (Homo sapiens, UniProt P08684); assay: Inhibition of CYP3A4 (unknown origin) at 30 uM; format: ADME
Cytochrome P450 3A4, sequence (P08684 whole entry): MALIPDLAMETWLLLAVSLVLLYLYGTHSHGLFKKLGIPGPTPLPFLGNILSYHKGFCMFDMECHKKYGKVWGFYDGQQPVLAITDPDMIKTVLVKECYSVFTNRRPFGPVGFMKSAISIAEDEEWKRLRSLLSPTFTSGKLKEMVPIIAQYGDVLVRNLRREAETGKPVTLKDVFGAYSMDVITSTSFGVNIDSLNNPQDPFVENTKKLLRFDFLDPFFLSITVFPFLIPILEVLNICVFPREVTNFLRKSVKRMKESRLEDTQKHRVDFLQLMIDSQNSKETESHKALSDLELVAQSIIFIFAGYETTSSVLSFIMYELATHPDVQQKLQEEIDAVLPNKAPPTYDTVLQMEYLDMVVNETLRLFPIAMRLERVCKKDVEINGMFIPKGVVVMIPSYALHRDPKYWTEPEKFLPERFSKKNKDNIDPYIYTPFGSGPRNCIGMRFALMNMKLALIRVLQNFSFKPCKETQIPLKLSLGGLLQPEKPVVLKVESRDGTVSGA

Aromatase [3] = target: T1, Aromatase (Homo sapiens, UniProt P11511); assay: Inhibition of CYP19A1 (unknown origin) at 20 uM
T1 sequence (P11511 whole entry): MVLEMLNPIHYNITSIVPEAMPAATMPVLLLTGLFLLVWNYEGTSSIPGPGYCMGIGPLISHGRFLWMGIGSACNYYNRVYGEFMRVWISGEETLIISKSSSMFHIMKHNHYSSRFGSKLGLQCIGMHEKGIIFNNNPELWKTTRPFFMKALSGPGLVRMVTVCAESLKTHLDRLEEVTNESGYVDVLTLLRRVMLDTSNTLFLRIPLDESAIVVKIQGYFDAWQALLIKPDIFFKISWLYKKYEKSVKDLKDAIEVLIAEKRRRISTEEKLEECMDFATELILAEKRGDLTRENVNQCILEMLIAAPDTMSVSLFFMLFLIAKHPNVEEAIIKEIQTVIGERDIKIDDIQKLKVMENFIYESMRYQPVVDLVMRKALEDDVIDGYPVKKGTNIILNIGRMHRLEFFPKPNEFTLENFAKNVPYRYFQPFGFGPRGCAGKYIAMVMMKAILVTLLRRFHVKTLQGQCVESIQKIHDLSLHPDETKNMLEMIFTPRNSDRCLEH

Cynomolgus monkey [4] = assay: Effect on ACTH-stimulated plasma cortisol level in cynomolgus monkey up to 8 mg/kg, iv administered 5 mins before ACTH challenge measured after 3 hrs; format: ADME, organism-based, Macaca fascicularis; conditions: in vivo
[5] = Oral bioavailability in Beagle dog; format: ADME, organism-based, Canis lupus familiaris; conditions: in vivo
[6] = target: T2, Steroid 17-alpha-hydroxylase/17,20 lyase (Homo sapiens, UniProt P05093); assay: Inhibition of CYP17A1 (unknown origin); format: ADME
T2 sequence (P05093 whole entry): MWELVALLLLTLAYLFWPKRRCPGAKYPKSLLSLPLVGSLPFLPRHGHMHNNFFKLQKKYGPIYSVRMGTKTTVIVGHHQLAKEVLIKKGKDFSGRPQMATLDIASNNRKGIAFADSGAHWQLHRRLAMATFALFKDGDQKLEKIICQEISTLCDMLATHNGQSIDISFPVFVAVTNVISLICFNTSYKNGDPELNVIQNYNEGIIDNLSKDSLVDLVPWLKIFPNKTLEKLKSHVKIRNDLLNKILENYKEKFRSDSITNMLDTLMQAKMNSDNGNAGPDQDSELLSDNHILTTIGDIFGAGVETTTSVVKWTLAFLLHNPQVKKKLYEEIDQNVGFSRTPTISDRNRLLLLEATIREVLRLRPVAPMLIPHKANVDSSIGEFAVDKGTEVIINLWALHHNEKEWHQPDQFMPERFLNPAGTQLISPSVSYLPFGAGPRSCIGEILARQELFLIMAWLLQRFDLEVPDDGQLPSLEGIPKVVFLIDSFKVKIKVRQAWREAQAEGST

[7] = Clearance in Wistar Han rat hepatocytes relative to hepatic blood flow; format: ADME, cell-based, Hepatocyte; conditions: read-out: CLH
Cytochrome P450 2C9 = Cytochrome P450 2C9 (Homo sapiens, UniProt P11712); assay: Inhibition of CYP2C9 (unknown origin) at 30 uM; format: ADME
Cytochrome P450 2C9, sequence (P11712 whole entry): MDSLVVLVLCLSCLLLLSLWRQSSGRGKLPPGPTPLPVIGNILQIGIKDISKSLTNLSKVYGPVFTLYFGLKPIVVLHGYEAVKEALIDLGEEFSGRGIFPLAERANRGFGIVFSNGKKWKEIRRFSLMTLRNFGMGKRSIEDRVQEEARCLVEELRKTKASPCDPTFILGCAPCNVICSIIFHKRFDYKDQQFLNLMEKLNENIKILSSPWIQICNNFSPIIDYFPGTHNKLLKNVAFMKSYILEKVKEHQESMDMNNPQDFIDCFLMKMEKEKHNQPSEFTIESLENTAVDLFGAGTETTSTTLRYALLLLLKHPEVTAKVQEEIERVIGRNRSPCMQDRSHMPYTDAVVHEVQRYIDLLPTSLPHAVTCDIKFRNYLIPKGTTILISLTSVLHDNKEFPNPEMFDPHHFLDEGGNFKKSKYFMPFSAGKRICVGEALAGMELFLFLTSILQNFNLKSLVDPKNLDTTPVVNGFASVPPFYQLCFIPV

[8] = Oral bioavailability in cynomolgus monkey; format: ADME, organism-based, Macaca fascicularis; conditions: in vivo
[9] = Unbound plasma concentration in ACTH-stimulated cynomolgus monkey at 0.1 mg/kg, iv administered 5 mins before ACTH challenge measured after 3 hrs; format: ADME, organism-based, Macaca fascicularis; conditions: in vivo
[10] = Unbound plasma concentration in ACTH-stimulated cynomolgus monkey at 0.1 mg/kg, iv administered 5 mins before ACTH challenge measured at 15 mins post dose; format: ADME, organism-based, Macaca fascicularis; conditions: in vivo, 0.25 h
Aromatase [11] = target: T1, Aromatase; assay: Inhibition of CYP19A1 (unknown origin)
Rattus norvegicus = assay: Clearance in iv dosed Wistar Han rat relative to hepatic blood flow; format: ADME, organism-based; conditions: in vivo
Cytochrome P450 2D6 = Cytochrome P450 2D6 (Homo sapiens, UniProt P10635); assay: Inhibition of CYP2D6 (unknown origin) at 30 uM; format: ADME
Cytochrome P450 2D6, sequence (P10635 whole entry): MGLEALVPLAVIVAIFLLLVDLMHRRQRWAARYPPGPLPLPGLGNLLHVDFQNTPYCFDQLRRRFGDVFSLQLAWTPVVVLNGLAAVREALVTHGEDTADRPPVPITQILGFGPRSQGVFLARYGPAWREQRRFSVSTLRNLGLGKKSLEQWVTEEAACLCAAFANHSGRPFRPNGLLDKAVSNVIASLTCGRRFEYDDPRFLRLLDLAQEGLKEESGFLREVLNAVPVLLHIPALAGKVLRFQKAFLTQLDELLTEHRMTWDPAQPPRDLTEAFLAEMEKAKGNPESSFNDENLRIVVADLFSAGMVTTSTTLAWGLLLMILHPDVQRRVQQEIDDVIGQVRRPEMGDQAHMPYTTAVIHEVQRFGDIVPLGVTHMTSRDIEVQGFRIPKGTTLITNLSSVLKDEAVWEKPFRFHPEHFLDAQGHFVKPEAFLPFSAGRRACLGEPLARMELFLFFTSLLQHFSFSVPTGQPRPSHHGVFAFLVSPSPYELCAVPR

[12] = Plasma concentration in ACTH-stimulated cynomolgus monkey at 8 mg/kg, iv administered 5 mins before ACTH challenge measured at 15 mins post dose; format: ADME, organism-based, Macaca fascicularis
[13] = Clearance in cynomolgus monkey hepatocytes relative to hepatic blood flow; format: ADME, cell-based, Macaca fascicularis, Hepatocyte; conditions: read-out: CLH
[14] = Inhibition of cynomolgus monkey adrenal mitochondrial CYP11B2 using corticosterone as substrate after 60 mins in presence of NADPH by mass spectrometric analysis
[15] = Unbound plasma concentration in ACTH-stimulated cynomolgus monkey at 8 mg/kg, iv administered 5 mins before ACTH challenge measured at 15 mins post dose; format: ADME, organism-based, Macaca fascicularis; conditions: in vivo, 0.25 h
[16] = Inhibition of cynomolgus monkey adrenal mitochondrial CYP11B1 using 11-deoxycortisol as substrate after 90 mins in presence of NADPH by mass spectrometric analysis
[17] = Clearance in human liver microsomes relative to hepatic blood flow; format: ADME, microsome; conditions: read-out: CLH
Cynomolgus monkey [18] = assay: In vivo inhibition of ACTH-stimulated aldosterone level in cynomolgus monkey assessed as change in plasma aldosterone AUC (0 to 3 hrs) at 8 mg/kg, iv administered 5 mins before ACTH challenge relative to control; format: functional, Macaca fascicularis; set-up: scale not given: the % may be the effect or the level left
Cynomolgus monkey [19] = assay: In vivo inhibition of ACTH-stimulated aldosterone level in cynomolgus monkey assessed as change in plasma aldosterone AUC (0 to 3 hrs) at 0.1 mg/kg, iv administered 5 mins before ACTH challenge relative to control; format: functional, Macaca fascicularis; set-up: scale not given: the % may be the effect or the level left
Cynomolgus monkey [20] = assay: In vivo inhibition of ACTH-stimulated aldosterone level in iv dosed cynomolgus monkey assessed as change in plasma aldosterone AUC (0 to 3 hrs) administered 5 mins before ACTH challenge; format: functional, organism-based; conditions: Macaca fascicularis
[21] = Clearance in Beagle dog hepatocytes relative to hepatic blood flow; format: ADME, cell-based, Canis lupus familiaris, Hepatocyte; conditions: read-out: CLH
[22] = Plasma concentration in ACTH-stimulated cynomolgus monkey at 0.1 mg/kg, iv administered 5 mins before ACTH challenge measured at 15 mins post dose; format: ADME, organism-based, Macaca fascicularis
Macaca fascicularis = organism: Macaca fascicularis; assay: Selectivity index, ratio of IC50 for cynomolgus monkey adrenal mitochondrial CYP11B1 to IC50 for cynomolgus monkey adrenal mitochondrial CYP11B2
[23] = Clearance in human hepatocytes relative to hepatic blood flow; format: ADME, cell-based, Hepatocyte; conditions: read-out: CLH
[24] = Oral bioavailability in Wistar Han rat; format: ADME, organism-based; conditions: in vivo
[25] = Plasma concentration in ACTH-stimulated cynomolgus monkey at 0.1 mg/kg, iv administered 5 mins before ACTH challenge measured after 3 hrs; format: ADME, organism-based, Macaca fascicularis
Canis familiaris = assay: Clearance in iv dosed Beagle dog relative to hepatic blood flow; format: ADME, organism-based, Canis lupus familiaris; conditions: in vivo

CL (Cynomolgus monkey [1]): 32% | inhibition (INH) (Cytochrome P450 3A4): Not Active | inhibition (INH) (Aromatase [3]): Not Active | bioavailability [5]: 91% | IC50 [6]: > 31.6 µM | hepatic extraction ratio [7]: 0.52 | inhibition (INH) (Cytochrome P450 2C9): Not Active | bioavailability [8]: 91% | Cp(f) [9]: 46 nM | Cp(f) [10]: 93 nM | IC50 (Aromatase [11]): > 31.6 µM | CL (Rattus norvegicus): 24% | inhibition (INH) (Cytochrome P450 2D6): Not Active | concentration at 0.25 h [12]: 9.6 µM | hepatic extraction ratio [13]: 0.34 | IC50 [14]: 92 nM | pIC50 [14]: 7 | Cp(f) [15]: 5.7 µM | pIC50 [16]: 5 | hepatic extraction ratio [17]: < 0.24 | hepatic extraction ratio [21]: < 0.3 | concentration at 0.25 h [22]: 160 nM | Ratio IC50 (Macaca fascicularis): 100 | hepatic extraction ratio [23]: < 0.21 | bioavailability [24]: 14% | concentration at 3 h [25]: 78 nM | CL (Canis familiaris): 9.7%
Structure (SMILES): CN(CCO)C(=O)c1ccc(Cc2onc3c2C(=O)CC(C)(C)C3)cc1
Activity (Cynomolgus monkey [2]): -87.9% | Activity (Cynomolgus monkey [4]): Non-Toxic | Activity (Cynomolgus monkey [18]): -92.3% | Activity (Cynomolgus monkey [19]): -62.4% | inhibition (Cynomolgus monkey [20]): Dose-dependent effect
